{"source": "patent US4476120A", "about": "“Thiolic derivatives of erythromycin having therapeutic activity, and pharmaceutical compositions containing them” (Sigma Tau Indistrie Farmaceutiche Riunites, p.A, priority 1982, dated 1984)", "key": {"[1]": {"tested_on": "B. subtilis SS 127", "assay_type": "cell-based", "conditions": "Brain Heart Infusion, estolate and RV11-RV15 previously hydrolized, unit assumed"}, "[2]": {"tested_on": "B. anthranis SS 08", "assay_type": "cell-based", "conditions": "Brain Heart Infusion, estolate and RV11-RV15 previously hydrolized, unit assumed"}, "[3]": {"tested_on": "E. cloacae SS 07", "assay_type": "cell-based", "conditions": "Brain Heart Infusion, estolate and RV11-RV15 previously hydrolized, unit assumed"}, "[4]": {"tested_on": "S. infantis SS 08", "assay_type": "cell-based", "conditions": "Brain Heart Infusion, estolate and RV11-RV15 previously hydrolized, unit assumed"}, "[5]": {"tested_on": "H. influentiae SS 02", "assay_type": "cell-based", "conditions": "Brain Heart Infusion, estolate and RV11-RV15 previously hydrolized, unit assumed"}, "[6]": {"tested_on": "Ps. aeruginosa SS 10", "assay_type": "cell-based", "conditions": "Brain Heart Infusion, estolate and RV11-RV15 previously hydrolized, unit assumed"}, "[7]": {"tested_on": "D. pneumoniae SS 23", "experiment": "Experimental infection induced by D. pneumoniae SS 23", "assay_type": "in vivo, Swiss white mice", "conditions": "D. pneumoniae SS 23, mg/kg of erythromycin, survival after 7 days, 10080 min", "how_it_was_run": "(§1)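 Swiss mice of 20 g infected parenterally with lethal amounts of Staph. aureus SS 07 or D. pneumoniae SS 23. Antibiotics were given at infection and again 6 and 24 h later. ED50 was derived from survival at 7 days.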"}, "[8]": {"tested_on": "Pr. mirabilis SS 09", "assay_type": "cell-based", "conditions": "Brain Heart Infusion, estolate and RV11-RV15 previously hydrolized, unit assumed"}, "[9]": {"tested_on": "E. coli SS 07", "assay_type": "cell-based", "conditions": "Brain Heart Infusion, estolate and RV11-RV15 previously hydrolized, unit assumed"}, "[10]": {"tested_on": "D. pneumoniae SS 23", "assay_type": "cell-based", "conditions": "Brain Heart Infusion, estolate and RV11-RV15 previously hydrolized, unit assumed"}, "[11]": {"tested_on": "B. anthranis SS 09", "assay_type": "cell-based", "conditions": "B. anthranis SS 09 (14 bis); Brain Heart Infusion; estolate and RV11-RV15 previously hydrolized; unit assumed"}, "[12]": {"tested_on": "H. pertussis SS 03", "assay_type": "cell-based", "conditions": "Brain Heart Infusion, estolate and RV11-RV15 previously hydrolized, unit assumed"}, "[13]": {"tested_on": "Strept. haemolyticus SS 17", "assay_type": "cell-based", "conditions": "Brain Heart Infusion, estolate and RV11-RV15 previously hydrolized, unit assumed"}, "[14]": {"tested_on": "S. lutea ATCC 9341", "assay_type": "cell-based", "conditions": "Brain Heart Infusion, estolate and RV11-RV15 previously hydrolized, unit assumed"}, "[15]": {"tested_on": "Staph. albus SS 03", "assay_type": "cell-based", "conditions": "Brain Heart Infusion, estolate and RV11-RV15 previously hydrolized, unit assumed"}, "[16]": {"tested_on": "C. albicans SS 04", "assay_type": "cell-based", "conditions": "Brain Heart Infusion, estolate and RV11-RV15 previously hydrolized, unit assumed"}, "[17]": {"tested_on": "Citrobacter SS 05", "assay_type": "cell-based", "conditions": "Brain Heart Infusion, estolate and RV11-RV15 previously hydrolized, unit assumed"}, "[18]": {"tested_on": "N. meningitidis SS 04", "assay_type": "cell-based", "conditions": "Brain Heart Infusion, estolate and RV11-RV15 previously hydrolized, unit assumed"}, "[19]": {"tested_on": "Strept. haemolyticus SS 18", "assay_type": "cell-based", "conditions": "Brain Heart Infusion, estolate and RV11-RV15 previously hydrolized, unit assumed"}, "[20]": {"tested_on": "Staph. aureus SS 08", "assay_type": "cell-based", "conditions": "Brain Heart Infusion, estolate and RV11-RV15 previously hydrolized, unit assumed"}, "[21]": {"tested_on": "Cl. tetani SS 17", "assay_type": "cell-based", "conditions": "Brain Heart Infusion, estolate and RV11-RV15 previously hydrolized, unit assumed"}, "[22]": {"tested_on": "Br. melitensis SS 19", "assay_type": "cell-based", "conditions": "unit assumed"}, "[23]": {"experiment": "Mucolytic activity: obstruction of the bronchial tract after SO2 inhalation", "assay_type": "in vivo, Sprague Dawley male rats", "conditions": "i.m., 250 mg/kg; SO2, 15 days"}, "[24]": {"tested_on": "Strept. faecalis SS 19", "assay_type": "cell-based", "conditions": "Brain Heart Infusion, estolate and RV11-RV15 previously hydrolized, unit assumed"}, "[25]": {"tested_on": "Staph. aureus SS 07", "experiment": "Experimental infection induced by Staph. aureus SS 07", "assay_type": "in vivo, Swiss white mice", "conditions": "Staph. aureus SS 07, mg/kg of erythromycin, survival after 7 days, 10080 min", "how_it_was_run": "as §1"}, "[26]": {"tested_on": "E. coli SS 04", "assay_type": "cell-based", "conditions": "Brain Heart Infusion, estolate and RV11-RV15 previously hydrolized, unit assumed"}, "[27]": {"tested_on": "E. aerogenes SS 011", "assay_type": "cell-based", "conditions": "Brain Heart Infusion, estolate and RV11-RV15 previously hydrolized, unit assumed"}, "[28]": {"tested_on": "Staph. aureus SS 07", "assay_type": "cell-based", "conditions": "Brain Heart Infusion, estolate and RV11-RV15 previously hydrolized, unit assumed"}, "[29]": {"tested_on": "S. heidelberg SS 18", "assay_type": "cell-based", "conditions": "Brain Heart Infusion, estolate and RV11-RV15 previously hydrolized, unit assumed"}, "[30]": {"experiment": "Acute toxicity", "assay_type": "in vivo", "conditions": "mortality 10 days after treatment, mice", "description": "The acute toxicity was assessed in Swiss white mice by oral and intravenous route. The LD50 values have been calculated by the methods of Probits, starting from the mortality recorded 10 days after the treatment."}, "[31]": {"tested_on": "B. subtilis ATCC 6633", "assay_type": "cell-based", "conditions": "Brain Heart Infusion, estolate and RV11-RV15 previously hydrolized, unit assumed"}, "[32]": {"experiment": "Histological examination of bronchi after SO2 inhalation", "assay_type": "in vivo, Sprague Dawley male rats", "conditions": "i.m., 250 mg/kg"}, "[33]": {"tested_on": "Br. abortus SS 7", "assay_type": "cell-based", "conditions": "Brain Heart Infusion, estolate and RV11-RV15 previously hydrolized, unit assumed"}, "[34]": {"tested_on": "Staph. aureus SS 10", "assay_type": "cell-based", "conditions": "Brain Heart Infusion, estolate and RV11-RV15 previously hydrolized, unit assumed"}, "[35]": {"tested_on": "Kl. aerogenes SS 71", "assay_type": "cell-based", "conditions": "Brain Heart Infusion, estolate and RV11-RV15 previously hydrolized, unit assumed"}, "[36]": {"tested_on": "C. diphtheriae SS 19", "assay_type": "cell-based", "conditions": "Brain Heart Infusion, estolate and RV11-RV15 previously hydrolized, unit assumed"}, "[37]": {"tested_on": "Citrobacter SS 09", "assay_type": "cell-based", "conditions": "Brain Heart Infusion, estolate and RV11-RV15 previously hydrolized, unit assumed"}, "[38]": {"tested_on": "E. coli SS 05", "assay_type": "cell-based", "conditions": "Brain Heart Infusion, estolate and RV11-RV15 previously hydrolized, unit assumed"}, "[39]": {"tested_on": "H. tubercolosis SS 03", "assay_type": "cell-based", "conditions": "Brain Heart Infusion, estolate and RV11-RV15 previously hydrolized, unit assumed", "text": "(§2) In the following table I the MIC/ml values are indicated corresponding to the lowest concentration capable of inducing a complete inhibition of the bacterial development."}, "[40]": {"tested_on": "Kl. pneumoniae SS 04", "assay_type": "cell-based", "conditions": "Brain Heart Infusion, estolate and RV11-RV15 previously hydrolized, unit assumed", "text": "as §2"}, "[41]": {"tested_on": "E. coli SS 06", "assay_type": "cell-based", "conditions": "Brain Heart Infusion, estolate and RV11-RV15 previously hydrolized, unit assumed"}, "[42]": {"tested_on": "B. cereus ATCC 11778", "assay_type": "cell-based", "conditions": "Brain Heart Infusion, estolate and RV11-RV15 previously hydrolized, unit assumed"}}, "data": [{"smiles": "CC[C@H]1OC(=O)[C@H](C)[C@@H](O[C@H]2C[C@@](C)(OC)[C@@H](O)[C@H](C)O2)[C@H](C)[C@@H](O[C@@H]2O[C@H](C)C[C@H](N(C)C)[C@H]2O)[C@](C)(O)C[C@@H](C)C(=O)[C@H](C)[C@@H](O)[C@]1(C)O", "note": "[RV03, erythromycyn-thiazolidin-carboxylate]", "values": [{"measurement": "MIC", "setting": "[1]", "result": 0.025, "unit": "µg/mL"}, {"measurement": "MIC", "setting": "[2]", "result": 0.2, "unit": "µg/mL"}, {"measurement": "MIC", "setting": "[3]", "result": "> 200", "unit": "µg/mL"}, {"measurement": "MIC", "setting": "[4]", "result": 200, "unit": "µg/mL"}, {"measurement": "MIC", "setting": "[5]", "result": 1.5, "unit": "µg/mL"}, {"measurement": "MIC", "setting": "[6]", "result": 100, "unit": "µg/mL"}, {"measurement": "ED50 (reliability limits)", "setting": "[7]; os", "result": "119.21 (142.60-99.65) mg/kg"}, {"measurement": "ED50 (reliability limits)", "setting": "[7]; s.c.", "result": "47.98 (59.13-38.93) mg/kg"}, {"measurement": "MIC", "setting": "[8]", "result": "> 200", "unit": "µg/mL"}, {"measurement": "MIC", "setting": "[9]", "result": 50, "unit": "µg/mL"}, {"measurement": "MIC", "setting": "[10]", "result": 0.025, "unit": "µg/mL"}, {"measurement": "MIC", "setting": "[11]", "result": 0.4, "unit": "µg/mL"}, {"measurement": "MIC", "setting": "[12]", "result": 0.4, "unit": "µg/mL"}, {"measurement": "MIC", "setting": "[13]", "result": 1.5, "unit": "µg/mL"}, {"measurement": "MIC", "setting": "[14]", "result": 0.025, "unit": "µg/mL"}, {"measurement": "MIC", "setting": "[15]", "result": 0.05, "unit": "µg/mL"}, {"measurement": "MIC", "setting": "[16]", "result": 200, "unit": "µg/mL"}, {"measurement": "MIC", "setting": "[17]", "result": "> 200", "unit": "µg/mL"}, {"measurement": "MIC", "setting": "[18]", "result": 1.5, "unit": "µg/mL"}, {"measurement": "MIC", "setting": "[19]", "result": 1.5, "unit": "µg/mL"}, {"measurement": "MIC", "setting": "[20]", "result": 0.025, "unit": "µg/mL"}, {"measurement": "MIC", "setting": "[21]", "result": 0.4, "unit": "µg/mL"}, {"measurement": "MIC", "setting": "[22]", "result": 6, "unit": "µg/mL"}, {"measurement": "Partial obstruction (% incidence)", "setting": "[23]", "result": 6.66, "unit": "%"}, {"measurement": "Total obstruction, compact plug (% incidence)", "setting": "[23]", "result": 26.66, "unit": "%"}, {"measurement": "Total obstruction, nodular mass (% incidence)", "setting": "[23]", "result": 20, "unit": "%"}, {"measurement": "Total obstruction, pimply mass (% incidence)", "setting": "[23]", "result": 6.66, "unit": "%"}, {"measurement": "MIC", "setting": "[24]", "result": 0.05, "unit": "µg/mL"}, {"measurement": "ED50 (reliability limits)", "setting": "[25]; os", "result": "2.14 (2.42-1.89) mg/kg"}, {"measurement": "ED50 (reliability limits)", "setting": "[25]; s.c.", "result": "1.00 (1.36-0.73) mg/kg"}, {"measurement": "MIC", "setting": "[26]", "result": 100, "unit": "µg/mL"}, {"measurement": "MIC", "setting": "[27]", "result": 50, "unit": "µg/mL"}, {"measurement": "MIC", "setting": "[28]", "result": 0.025, "unit": "µg/mL"}, {"measurement": "MIC", "setting": "[29]", "result": 100, "unit": "µg/mL"}, {"measurement": "LD50 (reliability limits)", "setting": "[30]; i.v., 14400 min", "result": "491.96 (552.31-438.20) mg.kg"}, {"measurement": "LD50 (reliability limits)", "setting": "[30]; os", "result": "> 3000", "unit": "mg·kg"}, {"measurement": "MIC", "setting": "[31]", "result": 0.05, "unit": "µg/mL"}, {"measurement": "histological appearance of non obstructed bronchi", "setting": "[32]; free non obstructed", "result": "practically normal appearance"}, {"measurement": "histological appearance of obstructed bronchial tract", "setting": "[32]; obstructed", "result": "an appearance like that of the control animals"}, {"measurement": "MIC", "setting": "[33]", "result": 6, "unit": "µg/mL"}, {"measurement": "MIC", "setting": "[34]", "result": 0.1, "unit": "µg/mL"}, {"measurement": "MIC", "setting": "[35]", "result": 50, "unit": "µg/mL"}, {"measurement": "MIC", "setting": "[36]", "result": 0.025, "unit": "µg/mL"}, {"measurement": "MIC", "setting": "[37]", "result": "> 200", "unit": "µg/mL"}, {"measurement": "MIC", "setting": "[38]", "result": 50, "unit": "µg/mL"}, {"measurement": "MIC", "setting": "[39]", "result": 25, "unit": "µg/mL"}, {"measurement": "MIC", "setting": "[40]", "result": 100, "unit": "µg/mL"}, {"measurement": "MIC", "setting": "[41]", "result": 50, "unit": "µg/mL"}, {"measurement": "MIC", "setting": "[42]", "result": 0.08, "unit": "µg/mL"}]}]}
